Reference: patent US9062124B2, “GIP-based mixed agonists for treatment of metabolic disorders and obesity” (priority 2008, dated 2015)
“Also recorded” adds a separate entry of the source. Where a SMILES comes first, the peptide text is derived from it. Bridges are numbered along the chain shown (N, C = ends). [ ]: non-standard residue; d: D form. Aib = CC(C)(N)C(=O)O

What was measured:
Type in all cases: cell-based
glucagon receptor = biological target: T1, glucagon receptor (Homo sapiens, UniProt P47871); assay: cAMP synthesis functional assay (firefly luciferase reporter in HEK293 cells), glucagon receptor; settings: for EC50: Glucagon Receptor EC50, nM
T1 construct: expressed in transfected cells; host or cells: HEK293
T1 sequence (P47871 26-477): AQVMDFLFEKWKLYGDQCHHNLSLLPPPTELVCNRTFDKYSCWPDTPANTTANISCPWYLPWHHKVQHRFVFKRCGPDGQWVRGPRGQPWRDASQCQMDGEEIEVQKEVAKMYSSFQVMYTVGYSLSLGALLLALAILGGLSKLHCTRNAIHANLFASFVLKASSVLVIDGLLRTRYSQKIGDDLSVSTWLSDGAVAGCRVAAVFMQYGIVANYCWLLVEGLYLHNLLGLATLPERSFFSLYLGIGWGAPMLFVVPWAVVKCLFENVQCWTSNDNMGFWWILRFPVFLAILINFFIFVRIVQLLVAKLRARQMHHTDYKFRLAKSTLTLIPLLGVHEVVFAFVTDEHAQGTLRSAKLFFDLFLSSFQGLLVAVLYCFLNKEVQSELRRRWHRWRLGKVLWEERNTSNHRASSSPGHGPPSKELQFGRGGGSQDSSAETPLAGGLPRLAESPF

GLP-1 receptor = biological target: T2, GLP-1 receptor (Homo sapiens, UniProt P43220); assay: cAMP synthesis functional assay (firefly luciferase reporter in HEK293 cells), GLP-1 receptor
T2 construct: expressed in transfected cells; host or cells: HEK293
T2 sequence (P43220 24-463, species assumed): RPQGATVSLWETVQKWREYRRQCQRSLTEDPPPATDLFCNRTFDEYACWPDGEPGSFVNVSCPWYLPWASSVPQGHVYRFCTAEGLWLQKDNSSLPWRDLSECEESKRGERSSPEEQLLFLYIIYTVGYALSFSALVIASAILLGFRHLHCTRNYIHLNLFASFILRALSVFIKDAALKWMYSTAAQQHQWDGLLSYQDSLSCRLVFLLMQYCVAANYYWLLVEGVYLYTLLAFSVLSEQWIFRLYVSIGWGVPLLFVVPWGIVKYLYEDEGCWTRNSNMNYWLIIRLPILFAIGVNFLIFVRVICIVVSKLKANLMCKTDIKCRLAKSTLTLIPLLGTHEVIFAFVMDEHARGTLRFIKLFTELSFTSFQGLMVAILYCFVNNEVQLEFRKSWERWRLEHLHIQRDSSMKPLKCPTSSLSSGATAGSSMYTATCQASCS

GIP receptor = biological target: T3, GIP receptor (Homo sapiens, UniProt P48546); assay: cAMP synthesis functional assay (firefly luciferase reporter in HEK293 cells), GIP receptor
T3 construct: expressed in transfected cells; host or cells: HEK293
T3 sequence (P48546 22-466): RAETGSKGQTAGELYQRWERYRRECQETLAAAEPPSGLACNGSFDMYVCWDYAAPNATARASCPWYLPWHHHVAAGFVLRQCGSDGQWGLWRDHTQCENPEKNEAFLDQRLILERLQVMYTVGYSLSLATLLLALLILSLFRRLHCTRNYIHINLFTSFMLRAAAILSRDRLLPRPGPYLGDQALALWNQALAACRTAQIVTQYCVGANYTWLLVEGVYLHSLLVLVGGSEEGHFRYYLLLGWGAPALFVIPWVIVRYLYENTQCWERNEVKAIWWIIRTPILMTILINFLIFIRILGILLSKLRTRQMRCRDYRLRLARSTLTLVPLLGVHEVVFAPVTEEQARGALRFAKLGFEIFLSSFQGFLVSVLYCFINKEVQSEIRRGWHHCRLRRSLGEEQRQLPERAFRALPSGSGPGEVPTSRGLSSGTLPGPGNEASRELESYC

[1] = tested on: glucagon receptor, GLP-1 receptor or GIP receptor; assay: Agonist profile across receptors assigned from the cAMP reporter assay data; settings: assigned from the in vitro EC50 data of Tables 1-4
[2] = Table 1, relative to the native hormone of the indicated receptor
[3] = Table 2, linear peptides with AIB at position 16 and/or 20
[4] = GLP-1 Receptor EC50, nM, Table 2
[5] = relative to the standard (Std.) EC50 of the same run

Row | SMILES | EC50 (glucagon receptor; Table 1) | Glucagon Receptor relative activity (glucagon receptor; [2]) | EC50 (GLP-1 receptor; GLP-1 Receptor EC50, nM, Table 1) | GLP-1 Receptor relative activity (GLP-1 receptor; [2]) | EC50 (GIP receptor; GIP Receptor EC50, nM, Table 1) | GIP Receptor relative activity (GIP receptor; [2]) | receptor activity profile (glucagon / GLP-1 / GIP agonism) [1] | EC50 (glucagon receptor; [3]) | Glucagon Receptor relative activity (glucagon receptor; Table 2) | EC50 (GLP-1 receptor; [4]) | GLP-1 Receptor relative activity (GLP-1 receptor; Table 2) | EC50 (GIP receptor; GIP Receptor EC50, nM, Table 2) | GIP Receptor relative activity (GIP receptor; Table 2) | Glucagon Receptor relative activity (glucagon receptor; [5]) | GLP-1 Receptor relative activity (GLP-1 receptor; [5]) | GIP Receptor relative activity (GIP receptor; [5]) | EC50 (GLP-1 receptor; GLP-1 Receptor EC50, cAMP luciferase reporter assay as in Example 16) | EC50 (GIP receptor; GIP Receptor EC50, cAMP luciferase reporter assay as in Example 16)
1 | CC[C@H](C)[C@H](NC(=O)[C@H](CO)NC(=O)[C@H](Cc1ccc(O)cc1)NC(=O)[C@H](CC(=O)O)NC(=O)[C@H](CO)NC(=O)[C@@H](NC(=O)[C@H](Cc1ccccc1)NC(=O)[C@@H](NC(=O)CNC(=O)[C@H](CCC(=O)O)NC(=O)C(C)(C)NC(=O)[C@@H](N)Cc1ccc(O)cc1)[C@@H](C)O)[C@@H](C)O)C(=O)N[C@@H](Cc1ccc(O)cc1)C(=O)N[C@@H](CC(C)C)C(=O)N[C@@H](CC(=O)O)C(=O)N[C@H]1CCC(=O)NCCCC[C@@H](C(=O)N[C@@H](CCC(=O)O)C(=O)N[C@@H](Cc2ccccc2)C(=O)N[C@H](C(=O)N[C@@H](CC(N)=O)C(=O)N[C@@H](Cc2c[nH]c3ccccc23)C(=O)N[C@@H](CC(C)C)C(=O)N[C@@H](CC(C)C)C(=O)N[C@@H](C)C(=O)NCC(=O)N[C@@H](CCCNC(=N)N)C(=O)N2CCC[C@H]2C(=O)N[C@@H](CO)C(=O)N[C@@H](CO)C(=O)NCC(=O)N[C@@H](C)C(=O)N2CCC[C@H]2C(=O)N2CCC[C@H]2C(=O)N2CCC[C@H]2C(=O)N[C@@H](CO)C(=O)N[C@@H](CS)C(N)=O)C(C)C)NC(=O)[C@H](C)NC(=O)[C@H](C)NC(=O)[C@H](CCC(N)=O)NC1=O [mt-204] (H-Y[Aib]EGTFTSDYSIYLDEQAAKEFVNWLLAGRPSSGAPPPSC-NH2; lactam 16-20; N-terminus assumed) | 108 nM | 0.06% | 0.018 nM | 161.11% | 0.147 nM | 19.73% | exemplary GLP-1/GIP co-agonist peptides |  |  |  |  |  |  |  |  |  |  | 
2 | CC[C@H](C)[C@H](NC(=O)[C@H](CO)NC(=O)[C@H](Cc1ccc(O)cc1)NC(=O)[C@H](CC(=O)O)NC(=O)[C@H](CO)NC(=O)[C@@H](NC(=O)[C@H](Cc1ccccc1)NC(=O)[C@@H](NC(=O)CNC(=O)[C@H](CCC(N)=O)NC(=O)C(C)(C)NC(=O)[C@@H](N)Cc1ccc(O)cc1)[C@@H](C)O)[C@@H](C)O)C(=O)N[C@@H](Cc1ccc(O)cc1)C(=O)N[C@@H](CC(C)C)C(=O)N[C@@H](CC(=O)O)C(=O)NC(C)(C)C(=O)N[C@@H](CCC(N)=O)C(=O)N[C@@H](C)C(=O)N[C@@H](C)C(=O)N[C@@H](CCC(N)=O)C(=O)N[C@@H](CCC(=O)O)C(=O)N[C@@H](Cc1ccccc1)C(=O)N[C@H](C(=O)N[C@@H](CC(N)=O)C(=O)N[C@@H](Cc1c[nH]c2ccccc12)C(=O)N[C@@H](CC(C)C)C(=O)N[C@@H](CC(C)C)C(=O)N[C@@H](C)C(=O)NCC(=O)NCC(=O)N1CCC[C@H]1C(=O)N[C@@H](CO)C(=O)N[C@@H](CO)C(=O)NCC(=O)N[C@@H](C)C(=O)N1CCC[C@H]1C(=O)N1CCC[C@H]1C(=O)N1CCC[C@H]1C(=O)N[C@@H](CO)C(=O)N[C@@H](CS)C(N)=O)C(C)C [mt-242] (H-Y[Aib]QGTFTSDYSIYLD[Aib]QAAQEFVNWLLAGGPSSGAPPPSC-NH2; N-terminus assumed) |  |  |  |  |  |  | exhibited activities of glucagon/GLP-1/GIP triagonists | 1.11 nM | 9.58% | 0.102 nM | 29.41% | 0.078 nM | 14.10% |  |  |  |  | 
3 | CC[C@H](C)[C@H](NC(=O)[C@H](CO)NC(=O)[C@H](Cc1ccc(O)cc1)NC(=O)[C@H](CC(=O)O)NC(=O)[C@H](CO)NC(=O)[C@@H](NC(=O)[C@H](Cc1ccccc1)NC(=O)[C@@H](NC(=O)CNC(=O)[C@H](CCC(N)=O)NC(=O)C(C)(C)NC(=O)[C@@H](N)Cc1ccc(O)cc1)[C@@H](C)O)[C@@H](C)O)C(=O)N[C@@H](Cc1ccc(O)cc1)C(=O)N[C@@H](CC(C)C)C(=O)N[C@@H](CC(=O)O)C(=O)NC(C)(C)C(=O)N[C@@H](CCC(N)=O)C(=O)N[C@@H](C)C(=O)N[C@@H](C)C(=O)NC(C)(C)C(=O)N[C@@H](CCC(=O)O)C(=O)N[C@@H](Cc1ccccc1)C(=O)N[C@H](C(=O)N[C@@H](CC(N)=O)C(=O)N[C@@H](Cc1c[nH]c2ccccc12)C(=O)N[C@@H](CC(C)C)C(=O)N[C@@H](CC(C)C)C(=O)N[C@@H](C)C(=O)NCC(=O)NCC(=O)N1CCC[C@H]1C(=O)N[C@@H](CO)C(=O)N[C@@H](CO)C(=O)NCC(=O)N[C@@H](C)C(=O)N1CCC[C@H]1C(=O)N1CCC[C@H]1C(=O)N1CCC[C@H]1C(=O)N[C@@H](CO)C(=O)N[C@@H](CS)C(N)=O)C(C)C [mt-250] (H-Y[Aib]QGTFTSDYSIYLD[Aib]QAA[Aib]EFVNWLLAGGPSSGAPPPSC-NH2; N-terminus assumed) |  |  |  |  |  |  | exhibited activities of glucagon/GLP-1/GIP triagonists |  | 6.30% |  | 63.64% |  | 30.65% |  |  |  |  | 
4 | CC[C@H](C)[C@H](NC(=O)[C@H](CO)NC(=O)[C@H](Cc1ccc(O)cc1)NC(=O)[C@H](CC(=O)O)NC(=O)[C@H](CO)NC(=O)[C@@H](NC(=O)[C@H](Cc1ccccc1)NC(=O)[C@@H](NC(=O)CNC(=O)[C@H](CCC(N)=O)NC(=O)C(C)(C)NC(=O)[C@@H](N)Cc1ccc(O)cc1)[C@@H](C)O)[C@@H](C)O)C(=O)N[C@@H](Cc1ccc(O)cc1)C(=O)N[C@@H](CC(C)C)C(=O)N[C@@H](CC(=O)O)C(=O)N[C@@H](CCC(=O)O)C(=O)N[C@@H](CCC(N)=O)C(=O)N[C@@H](C)C(=O)N[C@@H](C)C(=O)NC(C)(C)C(=O)N[C@@H](CCC(=O)O)C(=O)N[C@@H](Cc1ccccc1)C(=O)N[C@H](C(=O)N[C@@H](CC(N)=O)C(=O)N[C@@H](Cc1c[nH]c2ccccc12)C(=O)N[C@@H](CC(C)C)C(=O)N[C@@H](CC(C)C)C(=O)N[C@@H](C)C(=O)NCC(=O)NCC(=O)N1CCC[C@H]1C(=O)N[C@@H](CO)C(=O)N[C@@H](CO)C(=O)NCC(=O)N[C@@H](C)C(=O)N1CCC[C@H]1C(=O)N1CCC[C@H]1C(=O)N1CCC[C@H]1C(=O)N[C@@H](CO)C(=O)N[C@@H](CS)C(N)=O)C(C)C [mt-251] (H-Y[Aib]QGTFTSDYSIYLDEQAA[Aib]EFVNWLLAGGPSSGAPPPSC-NH2; N-terminus assumed) |  |  |  |  |  |  | exhibited activity of a GLP-1/GIP co-agonist |  | 1.52% |  | 140.00% |  | 57.58% |  |  |  |  | 
5 | CC[C@H](C)[C@H](NC(=O)[C@H](CO)NC(=O)[C@H](Cc1ccc(O)cc1)NC(=O)[C@H](CC(=O)O)NC(=O)[C@H](CO)NC(=O)[C@@H](NC(=O)[C@H](Cc1ccccc1)NC(=O)[C@@H](NC(=O)CNC(=O)[C@H](CCC(N)=O)NC(=O)C(C)(C)NC(=O)[C@@H](N)Cc1ccc(O)cc1)[C@@H](C)O)[C@@H](C)O)C(=O)N[C@@H](Cc1ccc(O)cc1)C(=O)N[C@@H](CC(C)C)C(=O)N[C@@H](CC(=O)O)C(=O)N[C@@H](CCCCN)C(=O)N[C@@H](CCC(N)=O)C(=O)N[C@@H](C)C(=O)N[C@@H](C)C(=O)NC(C)(C)C(=O)N[C@@H](CCC(=O)O)C(=O)N[C@@H](Cc1ccccc1)C(=O)N[C@H](C(=O)N[C@@H](CC(N)=O)C(=O)N[C@@H](Cc1c[nH]c2ccccc12)C(=O)N[C@@H](CC(C)C)C(=O)N[C@@H](CC(C)C)C(=O)N[C@@H](C)C(=O)NCC(=O)NCC(=O)N1CCC[C@H]1C(=O)N[C@@H](CO)C(=O)N[C@@H](CO)C(=O)NCC(=O)N[C@@H](C)C(=O)N1CCC[C@H]1C(=O)N1CCC[C@H]1C(=O)N1CCC[C@H]1C(=O)N[C@@H](CO)C(=O)N[C@@H](CS)C(N)=O)C(C)C [mt-252] |  |  |  |  |  |  | exhibited activities of glucagon/GLP-1/GIP triagonists; also recorded: exhibited activity at the GIP, GLP-1, and glucagon receptors | 0.319 nM | 13.17% | 0.018 nM | 116.67% | 0.013 nM | 146.15% | 13.17% | 116.67% | 146.15% |  | 
6 | CC[C@H](C)[C@H](NC(=O)[C@H](CO)NC(=O)[C@H](Cc1ccc(O)cc1)NC(=O)[C@H](CC(=O)O)NC(=O)[C@H](CO)NC(=O)[C@@H](NC(=O)[C@H](Cc1ccccc1)NC(=O)[C@@H](NC(=O)CNC(=O)[C@H](CCC(N)=O)NC(=O)C(C)(C)NC(=O)[C@@H](N)Cc1ccc(O)cc1)[C@@H](C)O)[C@@H](C)O)C(=O)N[C@@H](Cc1ccc(O)cc1)C(=O)N[C@@H](CC(C)C)C(=O)N[C@@H](CC(=O)O)C(=O)N[C@@H](CCCCN)C(=O)N[C@@H](CCC(N)=O)C(=O)N[C@@H](C)C(=O)N[C@@H](C)C(=O)NC(C)(C)C(=O)N[C@@H](CCC(=O)O)C(=O)N[C@@H](Cc1ccccc1)C(=O)N[C@H](C(=O)N[C@@H](CS)C(=O)N[C@@H](Cc1c[nH]c2ccccc12)C(=O)N[C@@H](CC(C)C)C(=O)N[C@@H](CC(C)C)C(=O)N[C@@H](C)C(=O)NCC(N)=O)C(C)C [mt-257] (H-Y[Aib]QGTFTSDYSIYLDKQAA[Aib]EFVCWLLAG-NH2; N-terminus assumed) |  |  |  |  |  |  | exhibited activity at the GIP, GLP-1, and glucagon receptors |  |  |  |  |  |  | 32.53% | 39.27% | 41.38% | 0.0303 nM | 0.0232 nM
